Source: ChEMBL document CHEMBL1201862, “PubChem BioAssay data set” (2004)
One block for each compound: values may come before it. Active and inactive are the calls of the source. For most assays here, no stated cut-off is given here; in the data, actives have a measured EC50 and inactives only a lower limit.

What was measured:
[1] = target: T1, Zinc finger protein mex-5 (Caenorhabditis elegans, UniProt Q9XUB2); assay: potency of MEX-5 RNA-binding blockers – biochemical, C. elegans, fluorescence polarization, dose response (AID 1960)
T1 sequence (Q9XUB2 whole entry): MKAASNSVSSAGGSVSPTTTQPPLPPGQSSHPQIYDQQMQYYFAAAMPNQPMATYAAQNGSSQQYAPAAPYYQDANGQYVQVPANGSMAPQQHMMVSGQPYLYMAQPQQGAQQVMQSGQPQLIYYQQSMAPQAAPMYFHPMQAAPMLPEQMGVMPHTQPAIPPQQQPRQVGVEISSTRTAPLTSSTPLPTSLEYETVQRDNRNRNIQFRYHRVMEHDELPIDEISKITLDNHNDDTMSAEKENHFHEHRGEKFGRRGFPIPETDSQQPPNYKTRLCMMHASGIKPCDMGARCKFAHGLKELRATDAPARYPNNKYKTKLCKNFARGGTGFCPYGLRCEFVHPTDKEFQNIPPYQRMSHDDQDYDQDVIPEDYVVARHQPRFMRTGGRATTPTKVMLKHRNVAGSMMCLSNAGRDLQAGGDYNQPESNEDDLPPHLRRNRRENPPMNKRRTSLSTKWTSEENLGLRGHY

[2] = target: T2, RNA-binding protein pos-1 (Caenorhabditis elegans, UniProt G5EF15); assay: disruptors of C. elegans POS-1 RNA interaction – biochemical, fluorescence polarization, dose response (AID 1964);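 further: purified POS-1 fused to maltose binding protein made in E. coli; potency of compounds blocking POS-1 binding to fluorescent RNA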
T2 sequence (G5EF15 whole entry): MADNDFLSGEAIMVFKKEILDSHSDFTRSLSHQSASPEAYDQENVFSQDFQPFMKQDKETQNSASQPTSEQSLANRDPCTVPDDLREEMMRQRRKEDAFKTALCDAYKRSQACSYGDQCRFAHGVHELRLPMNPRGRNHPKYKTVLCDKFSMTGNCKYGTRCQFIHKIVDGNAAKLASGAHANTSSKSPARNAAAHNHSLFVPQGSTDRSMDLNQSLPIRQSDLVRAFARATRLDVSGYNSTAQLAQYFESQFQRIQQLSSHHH

[3] = target: T3, Rac GTPase-activating protein 1 (Homo sapiens, UniProt Q9H0H5); assay: blockers of MgcRacGAP-driven Rac1 GTP hydrolysis – biochemical, ADP Hunter fluorescence, primary and confirmatory, confirmation (AID 624330); assay type: functional
T3 sequence (Q9H0H5 whole entry): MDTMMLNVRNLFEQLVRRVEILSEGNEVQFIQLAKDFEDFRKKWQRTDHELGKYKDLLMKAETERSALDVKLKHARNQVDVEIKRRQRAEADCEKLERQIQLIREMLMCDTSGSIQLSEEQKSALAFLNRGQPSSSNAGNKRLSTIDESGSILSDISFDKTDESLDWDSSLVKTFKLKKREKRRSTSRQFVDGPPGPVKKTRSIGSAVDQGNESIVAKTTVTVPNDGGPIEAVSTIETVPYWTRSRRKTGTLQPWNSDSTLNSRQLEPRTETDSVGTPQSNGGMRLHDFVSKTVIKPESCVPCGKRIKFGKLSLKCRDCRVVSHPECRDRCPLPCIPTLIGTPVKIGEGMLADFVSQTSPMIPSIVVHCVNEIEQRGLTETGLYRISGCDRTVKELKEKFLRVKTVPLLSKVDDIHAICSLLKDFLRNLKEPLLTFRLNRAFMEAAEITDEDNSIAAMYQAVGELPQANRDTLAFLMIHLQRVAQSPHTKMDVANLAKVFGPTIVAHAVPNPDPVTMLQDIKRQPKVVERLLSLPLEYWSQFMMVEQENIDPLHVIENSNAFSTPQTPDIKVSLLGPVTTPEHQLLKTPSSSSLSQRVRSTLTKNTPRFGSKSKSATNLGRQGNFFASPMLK

[4] = target: T4, Corticotropin-releasing factor receptor 2/Corticotropin-releasing factor-binding protein (Homo sapiens, UniProt P24387+Q13324); assay: Dose Response confirmation of uHTS hits for small molecule antagonists of the CRF-binding protein and CRF-R2 receptor complex.; assay type: functional; settings: read-out: IC50_Mean
T4 sequence (Q13324 whole entry): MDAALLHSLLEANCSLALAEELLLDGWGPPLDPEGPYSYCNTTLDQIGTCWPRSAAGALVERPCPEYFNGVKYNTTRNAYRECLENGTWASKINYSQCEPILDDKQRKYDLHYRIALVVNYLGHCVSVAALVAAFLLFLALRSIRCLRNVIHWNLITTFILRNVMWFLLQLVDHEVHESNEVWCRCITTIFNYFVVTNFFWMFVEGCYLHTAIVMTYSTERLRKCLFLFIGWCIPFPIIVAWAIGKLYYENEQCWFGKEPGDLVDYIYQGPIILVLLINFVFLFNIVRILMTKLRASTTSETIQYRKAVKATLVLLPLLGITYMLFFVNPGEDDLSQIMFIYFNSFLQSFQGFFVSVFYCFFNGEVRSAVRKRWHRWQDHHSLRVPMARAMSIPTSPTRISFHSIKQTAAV
T4 sequence (P24387 whole entry): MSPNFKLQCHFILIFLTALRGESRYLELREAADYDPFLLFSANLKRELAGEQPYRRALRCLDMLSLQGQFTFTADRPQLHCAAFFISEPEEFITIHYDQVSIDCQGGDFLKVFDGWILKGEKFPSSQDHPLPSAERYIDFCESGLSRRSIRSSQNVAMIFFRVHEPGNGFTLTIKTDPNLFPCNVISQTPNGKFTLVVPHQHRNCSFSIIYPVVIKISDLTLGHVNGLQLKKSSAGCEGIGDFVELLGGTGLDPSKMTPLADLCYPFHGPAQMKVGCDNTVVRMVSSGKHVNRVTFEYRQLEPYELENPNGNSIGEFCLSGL

[5] = target: T4, Corticotropin-releasing factor receptor 2/Corticotropin-releasing factor-binding protein; assay: activators of CRF receptor 2 with binding protein – uHTS hits, confirmation (AID 602473); assay type: functional; settings: read-out: EC50_Mean
cells [6] = assay type: functional, cell-based
cells [7] = assay type: functional, cell-based; remark: listed apart in the source
[8] = viability of uninfected HEp-2 cells – cell-based, HTS, cytotoxicity control for RSV inhibitor project, dose response (AID 2410); assay type: functional; settings: human respiratory syncytial virus
[9] = target: T5, Heat shock factor protein 1 (Mus musculus, UniProt P38532); assay: decrease of HSF1-responsive luciferase luminescence – cell-based, NIH3T3, dose retest, confirmation (AID 2382); assay type: functional;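 further: NIH3T3 fibroblasts with HSF1-driven luciferase reporter stressed by proteasome inhibitor MG132; luminescence from HSF1-driven luciferase expression after 8 hours of MG132 stress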
T5 sequence (P38532 whole entry): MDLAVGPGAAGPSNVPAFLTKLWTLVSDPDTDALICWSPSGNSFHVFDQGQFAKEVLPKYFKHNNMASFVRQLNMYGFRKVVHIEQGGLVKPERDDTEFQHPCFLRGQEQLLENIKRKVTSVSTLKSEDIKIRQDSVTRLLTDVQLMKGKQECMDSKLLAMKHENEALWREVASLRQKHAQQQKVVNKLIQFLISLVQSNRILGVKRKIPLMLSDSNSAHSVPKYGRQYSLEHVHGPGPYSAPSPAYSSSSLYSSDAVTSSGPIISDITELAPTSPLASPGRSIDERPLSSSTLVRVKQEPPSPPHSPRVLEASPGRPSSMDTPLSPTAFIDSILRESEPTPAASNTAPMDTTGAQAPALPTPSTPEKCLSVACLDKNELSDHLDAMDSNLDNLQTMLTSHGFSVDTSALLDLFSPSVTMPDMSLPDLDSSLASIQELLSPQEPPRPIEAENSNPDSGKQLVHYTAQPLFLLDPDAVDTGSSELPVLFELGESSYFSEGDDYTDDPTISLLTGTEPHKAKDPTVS

- EC50 [1]: > 300 µM (not active)
- EC50 [2]: > 300 µM (not active)
Structure (SMILES): COc1ccc(-n2c(NNC(C)=O)nc3sc4c(c3c2=O)CCCC4)cc1

- IC50 [3]: 83.3 µM (active)
Structure (SMILES): CN1CCCN(Cc2ccccc2C(F)(F)F)CC1

- EC50 [1]: > 300 µM (not active)
- EC50 [2]: > 300 µM (not active)
Structure (SMILES): O=C(O)C(=O)/C(=C\c1ccc(Cl)cc1)c1ccc2ccccc2n1

- EC50 [9]: > 195 µM (not active)
- EC50 [1]: 41.3 µM (active)
- EC50 [2]: 31.6 µM (active)
Structure (SMILES): N=c1c(C(=O)NC2CCCC2)cc2c(=O)n3ccccc3nc2n1Cc1ccccc1

- EC50 [1]: 8.55 µM (active)
- EC50 [2]: 198 µM (active)
Structure (SMILES): O=C(NN1C(=O)c2ccccc2NC1c1ccccn1)c1ccc([N+](=O)[O-])cc1 (stereo not given)

- EC50 [1]: > 300 µM (not active)
- EC50 [2]: > 300 µM (not active)
Structure (SMILES): COC(=O)c1ccccc1-n1cccc1C(=O)NP(=O)(N1CCOCC1)N1CCOCC1

- EC50 [1]: 30.1 µM (active)
- EC50 [2]: 33.4 µM (active)
Structure (SMILES): CC(=O)N1CCc2c(sc(NC(=O)C3CCCCC3)c2C(N)=O)C1

- IC50 [4]: > 47.1 µM (inactive)
- EC50 [5]: > 53 µM (inactive)
Structure (SMILES): COc1ccc(C2CC(c3ccc(Br)cc3)=NN2C(=O)CCC(=O)O)cc1OC (stereo not given)

- IC50 [3]: 221 µM (active)
Structure (SMILES): CCOc1ccc(CN2CCN(S(=O)(=O)c3ccc(NC(C)=O)cc3)CC2)cc1

- IC50 [4]: > 47.1 µM (inactive)
- EC50 [5]: > 53 µM (inactive)
Structure (SMILES): COc1ccc(-c2cccc(NS(=O)(=O)c3cccc([N+](=O)[O-])c3)c2)nn1

- EC50 [5]: 12.2 µM (active)
Structure (SMILES): N#Cc1c(-c2ccccc2)cc(-c2ccccc2)nc1SCC(=O)NCC(=O)O

- IC50 [3]: 43.3 µM (active)
Structure (SMILES): CCc1ccccc1N=C(S)NCC1CCN(c2ccc(OC)cc2)C1 (stereo not given)

- IC50 [4]: > 47.1 µM (inactive)
- EC50 [5]: > 53 µM (inactive)
Structure (SMILES): O=C(O)C1=C[C@@H](c2ccc(Br)cc2)C[C@@H](OCc2ccc(CO)cc2)O1

- IC50 [4]: > 47.1 µM (inactive)
- EC50 [5]: > 53 µM (inactive)
Structure (SMILES): Cn1c(CCNC(=O)c2ccco2)nc2cc(NC(=O)c3ccco3)ccc21

The next lines start with the compound.

Structure (SMILES): Cn1cc(S(=O)(=O)Nc2ccc(Br)cc2F)c(=O)n(C)c1=O
- IC50 [4]: > 47.1 µM (inactive)
- EC50 [5]: > 53 µM (inactive)

Structure (SMILES): Cc1cc(C)nc(NNC2=CC(=O)CC(C)(C)C2)n1
- EC50 [1]: 10.9 µM (active)
- EC50 [2]: 84.6 µM (active)

Structure (SMILES): CCCn1cc2c3c(cccc31)C1CC(C)CN(C)C1C2 (stereo not given)
- EC50 [1]: 29.6 µM (active)
- EC50 [2]: 36 µM (active)

Structure (SMILES): CC1(C)CC2CC(C)(CN2/C=C2/CCCCC2=O)C1 (stereo not given)
- IC50 [4]: > 47.1 µM (inactive)
- EC50 [5]: > 53 µM (inactive)

Structure (SMILES): Cc1ccc(S(=O)(=O)N2CCOC23CCN(C(=O)c2cc(Cl)ccc2Cl)CC3)cc1
- EC50 (cells [6]): > 350 µM (not active)
- EC50 (cells [7]): > 350 µM (not active)
- CC50 [8]: 16.3 µM (active)

Structure (SMILES): COc1cc(/C=C/C(=O)OCC(=O)N2CC3(C)CC2CC(C)(C)C3)ccc1O (stereo not given)
- IC50 [3]: 49.6 µM (active)

Structure (SMILES): Cc1ccccc1NC(=O)c1ccccc1O
- EC50 (cells [6]): 50.3 µM (active)
- EC50 (cells [7]): > 350 µM (not active)

Structure (SMILES): COC(=O)C12CCc3c(ccc4cc(OC)ccc34)C1=CC(=O)C2 (stereo not given)
- IC50 [4]: > 47.1 µM (inactive)
- EC50 [5]: > 53 µM (inactive)

Structure (SMILES): Cc1cccc(C(=O)OC(C)CN2CCCC2)c1 (stereo not given)
- EC50 (cells [6]): > 350 µM (not active)
- EC50 (cells [7]): > 350 µM (not active)

Structure (SMILES): CCOc1cc(/C=N/NC(=O)NN(C)c2ncc(C(F)(F)F)cc2Cl)ccc1O
- IC50 [3]: 88.4 µM (active)

Structure (SMILES): COc1ccc(CC(=O)N2CCN(C(=O)Cc3ccc(OC)cc3)CC2)cc1
- EC50 (cells [6]): > 350 µM (not active)
- EC50 (cells [7]): > 350 µM (not active)

Structure (SMILES): Cc1nnc(-c2ccccc2)nc1N(C)C
- EC50 (cells [6]): > 350 µM (not active)
- EC50 (cells [7]): > 350 µM (not active)

Structure (SMILES): Cc1ccccc1-c1nc2ccccc2c(=O)n1/N=C/c1ccccc1[N+](=O)[O-]
- EC50 (cells [6]): > 350 µM (not active)
- EC50 (cells [7]): > 350 µM (not active)

Structure (SMILES): Oc1ccc(C2=CSC3=NCCN23)cc1O
- EC50 [1]: 18.6 µM (active)
- EC50 [2]: 70.6 µM (active)

Structure (SMILES): CCN(CC)CCNC1=CC(=O)OC12CCCCC2
- EC50 (cells [6]): > 350 µM (not active)
- EC50 (cells [7]): > 350 µM (not active)

Structure (SMILES): O=C(O)CCC(=O)Nc1ccc(Br)c(Cl)c1
- IC50 [4]: < 0.368 µM (active)
- EC50 [5]: > 53 µM (inactive)

Structure (SMILES): COc1ccc(N(CC(=O)Nc2cc(OC)ccc2OC)S(=O)(=O)c2c(C)noc2C)cc1
- EC50 (cells [6]): > 350 µM (not active)
- EC50 (cells [7]): > 350 µM (not active)

Structure (SMILES): CN(c1ccc(O)cc1)c1nc(-c2cccs2)cs1
- IC50 [3]: 70.4 µM (active)

Structure (SMILES): COc1cccc(CNc2ccc3c(c2)ncn3C)c1OC
- IC50 [3]: 99.4 µM (active)
